Assay results: ChEMBL document CHEMBL6071148, “Synthesis and biological evaluation of novel 3,6- amide and thioamide substituted- 2,3,4,9-tetrahydro-1H-carbazoles for anti-cancer activity” (Eur J Med Chem, 2024)
Active and inactive are the calls of the source. The rule behind the calls is not given here.

What was measured:
Mitochondrial membrane [1] = experiment: Disruption of mitochondrial membrane integrity in human HCT-116 cells assessed as presence of bloated mitochondria by TEM analysis; assay type: cell membranes
A549 [2] = experiment: Inhibition of colony formation in human A549 cells assessed as reduction in clonogenic capacity incubated for 24 hrs by crystal violet staining based analysis; assay type: functional, cell-based
HCT-116 [3] = experiment: Cytotoxicity against human HCT-116 cells assessed as inhibition of cell proliferation incubated for 72 hrs by MTT assay; assay type: functional, cell-based; conditions: HCT-116, 72 h
Mitochondrial membrane [4] = experiment: Disruption of mitochondrial membrane integrity in human HCT-116 cells assessed as mitochondrial swelling by TEM analysis; assay type: cell membranes
HCT-116 [5] = experiment: Induction of apoptosis in human HCT-116 cells assessed as increase in apoptotic cells incubated for 48 hrs by Annexin-V and 7-AAD staining based flow cytometric analysis (reference value: 6.82 +/- 1.05%); assay type: functional
A549 [6] = experiment: Cytotoxicity against human A549 cells assessed as inhibition of cell proliferation incubated for 72 hrs by MTT assay; assay type: functional, cell-based; conditions: A549, 72 h
MCF7 [7] = experiment: Cytotoxicity against human MCF7 cells assessed as inhibition of cell proliferation incubated for 72 hrs by MTT assay; assay type: functional, cell-based; conditions: MCF7, 72 h
A549 [8] = experiment: Induction of apoptosis in human A549 cells assessed as apoptotic rate at IC50 incubated for 48 hrs by Annexin-V and 7-AAD staining based flow cytometric analysis (reference value: 6.56 +/- 1.17%); assay type: functional
Mitochondrial membrane [9] = experiment: Disruption of mitochondrial membrane integrity in human HCT-116 cells assessed as organization of mtDNA nucleoids within cells by TEM analysis; assay type: cell membranes
A549 [10] = experiment: Induction of cell cycle arrest in human A549 cells assessed as accumulation of cells at G2 phase at IC50 incubated for 48 hrs by PI staining based flow cytometric analysis (reference value: 38.15 +/- 1.80%); assay type: functional
Mitochondrial membrane [11] = experiment: Disruption of mitochondrial membrane integrity in human HCT-116 cells assessed as change in mitochondrial internal organization by TEM analysis; assay type: cell membranes
Mitochondrial membrane [12] = experiment: Disruption of mitochondrial membrane integrity in human HCT-116 cells assessed as change in mitochondrial size by TEM analysis; assay type: cell membranes
[13] = Toxicity in chicken embryo chorioallantoic membrane at nanomolar concentration measured at day 6 by Kaplan Mayer survival analysis; assay type: tissue-based, Gallus gallus; conditions: in vivo
HCT-116 [14] = experiment: Induction of DNA damage in human HCT-116 cells assessed as gammaH2AX positive cells at IC50 incubated for 48 hrs by PI staining based flow cytometric analysis (reference value: 6.24 +/- 1.94%); assay type: functional
[15] = Cytotoxicity against human MRC5 cells assessed as inhibition of cell proliferation incubated for 72 hrs by MTT assay; assay type: toxicity, cell-based
Mitochondrial membrane [16] = experiment: Disruption of mitochondrial membrane integrity in human HCT-116 cells assessed as disruption of normal mitochondrial distribution by TEM analysis; assay type: cell membranes
A549 [17] = experiment: Induction of apoptosis in human A549 cells assessed as apoptotic rate at IC50 incubated for 24 hrs by Annexin-V and 7-AAD staining based flow cytometric analysis (reference value: 4.56 +/- 0.81%); assay type: functional
A549 [18] = experiment: Inhibition of cell adhesion in human A549 cells assessed as reduction in cell aggregates formation at IC50 incubated for 48 hrs by inverted phase contrast microscopic analysis; assay type: functional, cell-based
[19] = Toxicity in chicken embryo chorioallantoic membrane assessed as survival rate at 4.5 uM measured at day 6 by Kaplan Mayer survival analysis relative to control; assay type: tissue-based, Gallus gallus
MCF7 [20] = experiment: Inhibition of colony formation in human MCF7 cells assessed as reduction in clonogenic capacity incubated for 24 hrs by crystal violet staining based analysis; assay type: functional, cell-based
[21] = Toxicity in chicken embryo chorioallantoic membrane assessed as survival rate at 1.5 uM measured at day 6 by Kaplan Mayer survival analysis relative to control; assay type: tissue-based, Gallus gallus
HCT-116 [22] = experiment: Induction of cell cycle arrest in human HCT-116 cells assessed as accumulation of cells at G1 phase at IC50 incubated for 24 hrs by PI staining based flow cytometric analysis relative to control; assay type: functional
Mitochondrial membrane [23] = experiment: Induction of mitochondrial membrane depolarization in human HCT-116 cells assessed as increase in mitochondrial fission by measuring appearance of spherical mitochondria by confocal microscopic analysis; assay type: cell membranes
HCT-116 [24] = experiment: Inhibition of colony formation in human HCT-116 cells assessed as reduction in clonogenic capacity incubated for 24 hrs by crystal violet staining based analysis; assay type: functional, cell-based
Mitochondrial membrane [25] = experiment: Disruption of mitochondrial membrane potential in human HCT-116 cells assessed as translocation of cytochrome c to cytoplasm at IC50 incubated for 48 hrs by confocal microscopic analysis; assay type: cell membranes
HCT-116 [26] = experiment: Inhibition of cell adhesion in human HCT-116 cells assessed as reduction in cell aggregates formation at IC50 incubated for 48 hrs by inverted phase contrast microscopic analysis; assay type: functional, cell-based
Mitochondrial membrane [27] = experiment: Induction of mitochondrial membrane depolarization in human HCT-116 cells assessed as increase in mitochondrial fission by measuring appearance of circular mitochondria by confocal microscopic analysis; assay type: cell membranes
HCT-116 [28] = experiment: Induction of cell cycle arrest in human HCT-116 cells assessed as accumulation of cells at G1 phase at IC50 incubated for 48 hrs by PI staining based flow cytometric analysis relative to control; assay type: functional
A549 [29] = experiment: Induction of cell cycle arrest in human A549 cells assessed as accumulation of cells at S phase at IC50 incubated for 24 hrs by PI staining based flow cytometric analysis (reference value: 39.41 +/- 2.54%); assay type: functional
Mitochondrial membrane [30] = experiment: Induction of mitochondrial membrane depolarization in human HCT-116 cells assessed as increase in mitochondrial fission by measuring appearance of shortened mitochondria by confocal microscopic analysis; assay type: cell membranes
Mitochondrial membrane [31] = experiment: Disruption of mitochondrial membrane integrity in human HCT-116 cells assessed as presence of large mitochondria by TEM analysis; assay type: cell membranes
Mitochondrial membrane [32] = experiment: Disruption of mitochondrial membrane integrity in human HCT-116 cells assessed as change in mitochondrial shape by TEM analysis; assay type: cell membranes
HCT-116 [33] = experiment: Induction of cell cycle arrest in human HCT-116 cells assessed as accumulation of cells at G2 phase at IC50 incubated for 24 hrs by PI staining based flow cytometric analysis relative to control; assay type: functional
A549 [34] = experiment: Induction of DNA damage in human A549 cells assessed as increase in gammaH2AX positive cells at IC50 incubated for 48 hrs by PI staining based flow cytometric analysis; assay type: functional, cell-based
Mitochondrial membrane [35] = experiment: Induction of mitochondrial membrane depolarization in human A549 cells assessed as decrease in ratio of J-aggregates to J-monomer incubated for 24 hrs by JC-1 staining based flow cytometric analysis (reference value: 17.72 +/- 3.94%); assay type: cell membranes
HCT-116 [36] = experiment: Induction of apoptosis in human HCT-116 cells assessed as increase in apoptotic cells incubated for 24 hrs by Annexin-V and 7-AAD staining based flow cytometric analysis (reference value: 8.10 +/- 2.16%); assay type: functional
A549 [37] = experiment: Induction of cell cycle arrest in human A549 cells assessed as accumulation of cells at G1 phase at IC50 incubated for 48 hrs by PI staining based flow cytometric analysis (reference value: 53.5 +/- 4.01%); assay type: functional
HCT-116 [38] = experiment: Induction of cell cycle arrest in human HCT-116 cells assessed as accumulation of cells at S phase at IC50 incubated for 48 hrs by PI staining based flow cytometric analysis; assay type: functional
Mitochondrial membrane [39] = experiment: Disruption of mitochondrial membrane integrity in human HCT-116 cells assessed as absence of well-developed cristae by TEM analysis; assay type: cell membranes

CC(=S)NC1CCc2[nH]c3ccc(OC(F)(F)F)cc3c2C1 (centres undefined)
Activity (Mitochondrial membrane [1]): Active | inhibition (A549 [2]): Dose-Dependent Effect | IC50 (HCT-116 [3]): 23.6 µM | Activity (Mitochondrial membrane [4]): Active | Activity (HCT-116 [5]): 45.03% | IC50 (A549 [6]): 25.7 µM | IC50 (MCF7 [7]): 31 µM | Activity (A549 [8]): 27.97% | Activity (Mitochondrial membrane [9]): Active | Activity (A549 [10]): 46.75% | Activity (Mitochondrial membrane [11]): Active | Activity (Mitochondrial membrane [12]): Active | Activity [13]: Non-Toxic | Activity (HCT-116 [14]): 14.63% | IC50 at 72 h [15]: > 50 µM | Activity (Mitochondrial membrane [16]): Active | Activity (A549 [17]): 16.64% | inhibition (A549 [18]): Active | survival at 4.5 µM [19]: 70% | inhibition (MCF7 [20]): Dose-Dependent Effect | survival at 1.5 µM [21]: 70% | Activity (HCT-116 [22]): 16.95% | Activity (Mitochondrial membrane [23]): Active | inhibition (HCT-116 [24]): Dose-Dependent Effect | Activity (Mitochondrial membrane [25]): Active | inhibition (HCT-116 [26]): Active | Activity (Mitochondrial membrane [27]): Active | Activity (HCT-116 [28]): 31.15% | Activity (A549 [29]): 15.45% | Activity (Mitochondrial membrane [30]): Active | Activity (Mitochondrial membrane [31]): Active | Activity (Mitochondrial membrane [32]): Active | Activity (HCT-116 [33]): 17.95% | Activity (A549 [34]): Active | Activity (Mitochondrial membrane [35]): 16.9 | Activity (HCT-116 [36]): 17.5% | Activity (A549 [37]): 53.35% | Activity (HCT-116 [38]): 18.9% | Activity (Mitochondrial membrane [39]): Active
